According to ChEMBL document CHEMBL1201862, “PubChem BioAssay data set” (2004):
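Method: 48-hour compound exposure of cells in 96-well plates, five concentrations, linear interpolation of endpoints. GI50: concentration for 50% inhibition of growth.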 The source made the active and inactive calls. No stated cut-off is given here; in the data, active = GI50 up to about 1.1 µM and inactive = higher.

Assays:
Experiment in all cases: NCI-60 cell line screen, 48 h
A549 = test system: A549
UACC-62 = test system: UACC-62
OVCAR-4 = test system: OVCAR-4
NCI-H23 = test system: NCI-H23
SK-MEL-28 = test system: SK-MEL-28
SNB-75 = test system: SNB-75
SW-620 = test system: SW-620
OVCAR-3 = test system: OVCAR-3
MOLT-4 = test system: MOLT-4
OVCAR-5 = test system: OVCAR-5
SNB-19 = test system: SNB-19
NCI-H460 = test system: NCI-H460
RXF 393 = test system: RXF 393
LOX IMVI = test system: LOX IMVI
SK-MEL-5 = test system: SK-MEL-5
K562 = test system: K562
SF-268 = test system: SF-268
UACC-257 = test system: UACC-257
SK-OV-3 = test system: SK-OV-3
HOP-62 = test system: HOP-62

Measured: GI50

CCOC(=O)c1csc(NC(=O)CN2CCOCC2)n1
inactive: A549 > 100 µM | UACC-62 > 100 µM | OVCAR-4 > 100 µM | NCI-H23 > 100 µM | SK-MEL-28 > 100 µM | SNB-75 > 100 µM | SW-620 > 100 µM | OVCAR-3 > 100 µM | MOLT-4 17.1 µM | OVCAR-5 > 100 µM | SNB-19 > 100 µM | NCI-H460 > 100 µM | RXF 393 > 100 µM | LOX IMVI > 100 µM | SK-MEL-5 > 100 µM | K562 > 100 µM | SF-268 > 100 µM | UACC-257 > 100 µM | SK-OV-3 > 100 µM | HOP-62 > 100 µM

CCN(CC)CCNC(=O)C1COc2ccc(-c3cc(=O)c4ccccc4o3)cc2O1 (stereo not drawn)
inactive: A549 23.6 µM | UACC-62 17.6 µM | OVCAR-4 18.5 µM | NCI-H23 22 µM | SK-MEL-28 17.4 µM | SNB-75 17.2 µM | SW-620 18.5 µM | OVCAR-3 21.2 µM | MOLT-4 20.6 µM | OVCAR-5 22.3 µM | SNB-19 20.2 µM | NCI-H460 16.8 µM | RXF 393 20 µM | LOX IMVI 17.2 µM | SK-MEL-5 20.9 µM | K562 16 µM | SF-268 19.5 µM | UACC-257 17.6 µM | SK-OV-3 23 µM | HOP-62 21.4 µM

C=CCNC(=O)N(CCCC(NC(C)=O)C(=O)NCc1ccccc1)Cc1ccccc1 (stereo not drawn)
inactive: A549 > 100 µM | UACC-62 > 100 µM | OVCAR-4 > 100 µM | NCI-H23 > 100 µM | SK-MEL-28 > 100 µM | SNB-75 > 100 µM | SW-620 > 100 µM | OVCAR-3 > 100 µM | MOLT-4 > 100 µM | OVCAR-5 > 100 µM | SNB-19 > 100 µM | NCI-H460 > 100 µM | RXF 393 > 100 µM | LOX IMVI > 100 µM | SK-MEL-5 > 100 µM | K562 > 100 µM | SF-268 > 100 µM | UACC-257 > 100 µM | SK-OV-3 > 100 µM | HOP-62 > 100 µM

CC(C)C1N2CCCCC2[C@@H]2c3[nH]c4ccccc4c3CCN12 (stereo partly drawn)
inactive: A549 > 100 µM | UACC-62 > 100 µM | OVCAR-4 > 100 µM | NCI-H23 > 100 µM | SK-MEL-28 > 100 µM | SNB-75 > 100 µM | SW-620 > 100 µM | OVCAR-3 > 100 µM | MOLT-4 > 100 µM | OVCAR-5 > 100 µM | SNB-19 > 100 µM | NCI-H460 > 100 µM | RXF 393 > 100 µM | SK-MEL-5 > 100 µM | K562 > 100 µM | SF-268 > 100 µM | UACC-257 > 100 µM | SK-OV-3 > 100 µM | HOP-62 > 100 µM

COc1cc2c(cc1OC)C(Cl)C(c1ccc(Cl)c(Cl)c1)=C2Cl (stereo not drawn)
inactive: UACC-62 4.37 µM | NCI-H23 44.6 µM | SK-MEL-28 12 µM | SNB-75 8.79 µM | SW-620 6.18 µM | OVCAR-3 4.18 µM | MOLT-4 2.92 µM | SNB-19 15.6 µM | NCI-H460 4.09 µM | LOX IMVI 2.24 µM | SK-MEL-5 5.94 µM | K562 3.22 µM | SF-268 6.21 µM | SK-OV-3 15.5 µM

COC(=O)/C=C(C)/C=C\COC1CCCCO1 (stereo not drawn)
inactive: A549 > 100 µM | UACC-62 > 100 µM | OVCAR-4 > 100 µM | NCI-H23 > 100 µM | SK-MEL-28 > 100 µM | SNB-75 > 100 µM | SW-620 > 100 µM | OVCAR-3 > 100 µM | MOLT-4 > 100 µM | OVCAR-5 > 100 µM | SNB-19 > 100 µM | NCI-H460 > 100 µM | RXF 393 > 100 µM | LOX IMVI > 100 µM | SK-MEL-5 > 100 µM | K562 > 100 µM | SF-268 > 100 µM | UACC-257 > 100 µM | SK-OV-3 > 100 µM | HOP-62 > 100 µM

COc1ccc(C2SCC(=O)N2NC(=O)c2ccncc2)cc1F (stereo not drawn)
inactive: A549 > 100 µM | OVCAR-4 > 100 µM | NCI-H23 > 100 µM | SK-MEL-28 > 100 µM | SNB-75 > 100 µM | SW-620 > 100 µM | OVCAR-5 > 100 µM | SNB-19 > 100 µM | NCI-H460 > 100 µM | RXF 393 > 100 µM | LOX IMVI > 100 µM | SK-MEL-5 > 100 µM | SF-268 > 100 µM | UACC-257 > 100 µM | SK-OV-3 > 100 µM | HOP-62 > 100 µM

COc1cc(/C=N\O)cc(/C=N/O)c1O
inactive: A549 > 100 µM | UACC-62 68.1 µM | OVCAR-4 > 100 µM | NCI-H23 > 100 µM | SK-MEL-28 38.5 µM | SNB-75 80.7 µM | SW-620 73.1 µM | OVCAR-3 63 µM | MOLT-4 25.7 µM | OVCAR-5 44.3 µM | SNB-19 47.6 µM | NCI-H460 40.2 µM | RXF 393 23.6 µM | LOX IMVI 40.9 µM | SK-MEL-5 40 µM | K562 71.9 µM | SF-268 35.7 µM | UACC-257 74 µM | SK-OV-3 30.3 µM | HOP-62 21.9 µM

Nc1nc(SCc2ccc([N+](=O)[O-])cc2)nc2c1ncn2C1OC(COP(=O)(O)O)C(O)C1O (stereo not drawn)
inactive: A549 > 100 µM | UACC-62 > 100 µM | OVCAR-4 > 100 µM | NCI-H23 > 100 µM | SK-MEL-28 > 100 µM | SNB-75 > 100 µM | SW-620 > 100 µM | OVCAR-3 > 100 µM | MOLT-4 > 100 µM | OVCAR-5 > 100 µM | SNB-19 > 100 µM | NCI-H460 > 100 µM | RXF 393 > 100 µM | LOX IMVI > 100 µM | SK-MEL-5 > 100 µM | K562 > 100 µM | SF-268 > 100 µM | UACC-257 > 100 µM | SK-OV-3 > 100 µM | HOP-62 > 100 µM

CCOC(=O)/C(O)=C1\C(=O)N(C)C(=O)C1c1cccc(OC)c1 (stereo not drawn)
inactive: A549 > 100 µM | UACC-62 > 100 µM | OVCAR-4 > 100 µM | NCI-H23 > 100 µM | SK-MEL-28 > 100 µM | SNB-75 > 100 µM | SW-620 > 100 µM | OVCAR-3 > 53.3 µM | MOLT-4 > 100 µM | OVCAR-5 > 100 µM | SNB-19 > 100 µM | NCI-H460 > 100 µM | RXF 393 > 100 µM | LOX IMVI > 100 µM | SK-MEL-5 > 100 µM | K562 > 100 µM | SF-268 > 100 µM | UACC-257 > 100 µM | SK-OV-3 > 100 µM | HOP-62 > 100 µM

COc1ccc(C2c3cc4c(cc3OC(O)(CO)C2C(=O)O)OCO4)cc1.COc1ccc(C2c3cc4c(cc3OC3(O)COC(=O)C23)OCO4)cc1 (stereo not drawn)
inactive: A549 36.2 µM | UACC-62 17.7 µM | OVCAR-4 > 100 µM | NCI-H23 23.4 µM | SK-MEL-28 25.2 µM | SNB-75 30.3 µM | SW-620 18.7 µM | OVCAR-3 22.4 µM | MOLT-4 19.1 µM | OVCAR-5 39.4 µM | NCI-H460 19.1 µM | RXF 393 16.9 µM | LOX IMVI 16.5 µM | SK-MEL-5 19.8 µM | K562 19.1 µM | SF-268 28 µM | UACC-257 21.5 µM | SK-OV-3 40.1 µM | HOP-62 33.7 µM

N#Cc1c(-c2ccc([N+](=O)[O-])cc2)cc(-c2ccc(Nc3ccnc4cc(C(F)(F)F)ccc34)cc2)nc1N
inactive: A549 13 µM | UACC-62 62.4 µM | OVCAR-4 7.6 µM | NCI-H23 23.2 µM | SK-MEL-28 25.5 µM | SNB-75 20.4 µM | SW-620 8.3 µM | OVCAR-3 12.9 µM | MOLT-4 4.34 µM | OVCAR-5 30.9 µM | SNB-19 18.6 µM | NCI-H460 11.9 µM | RXF 393 19.1 µM | LOX IMVI 3.64 µM | SK-MEL-5 25.5 µM | K562 3.64 µM | SF-268 33 µM | UACC-257 > 50 µM | SK-OV-3 24 µM | HOP-62 21.3 µM

COC(=O)C12CCCN1CCC2
inactive: A549 > 100 µM | UACC-62 > 100 µM | OVCAR-4 > 100 µM | NCI-H23 > 100 µM | SK-MEL-28 > 100 µM | SNB-75 > 100 µM | SW-620 > 100 µM | OVCAR-3 > 100 µM | MOLT-4 > 100 µM | OVCAR-5 > 100 µM | SNB-19 > 100 µM | NCI-H460 > 100 µM | RXF 393 > 100 µM | LOX IMVI > 100 µM | SK-MEL-5 > 100 µM | K562 > 100 µM | SF-268 > 100 µM | UACC-257 > 100 µM | SK-OV-3 > 100 µM | HOP-62 > 100 µM
